“Also recorded” adds a separate entry of the source.
Columns and labels:
Tsk−/+ mice = test: Transthoracic echocardiography, posterior wall thickness / heart function; assay type: in vivo, mouse
Excerpt: (§1) All experimental procedures and protocols involving mice were reviewed and approved by the Institutional Animal Care and Use Committee (IACUC) of the Medical College of Wisconsin (AUA#512). They also conformed to the rules in the Guiding Principles in the Care and Use of Animals published by the American Physiologic Society and the Guide for the Care and Use of Laboratory Animals published by OLAW. Male Tsk^−/+ and C57Bl/6J mice (6–8 weeks of age) were purchased from Jackson Laboratories (Bar Harbor, ME). Three groups of mice were studied; C57Bl/6J, Tsk^−/+, and Tsk^−/+ mice treated with 4F (1 mg/kg/d, sc) as published previously.
Tsk^−/+ and C57BL/6J mice (n = 6) were anesthetized by isoflurane inhalation (1.50%) and oxygen. They were place on a warming platform supine position. A VisualSonics Vevo 770 high-resolution imaging system (Toronto, Canada) equipped with a 30-MHz transducer (Scanhead RMV 707) was used to perform the transthoracic echocardiography. Two-dimensional guided M-mode LV dimensions were measured and posterior wall thickness was analyzed.

IRF5 [1] = biological target: T1, IRF5 (Homo sapiens, UniProt Q13568); test: Biolayer interferometry, 4F binding to B-IRF5; settings: B-IRF5 on SA biosensors, Octet Red 96
T1 construct: purchased GenScript USA Inc
T1 sequence (Q13568 1-498): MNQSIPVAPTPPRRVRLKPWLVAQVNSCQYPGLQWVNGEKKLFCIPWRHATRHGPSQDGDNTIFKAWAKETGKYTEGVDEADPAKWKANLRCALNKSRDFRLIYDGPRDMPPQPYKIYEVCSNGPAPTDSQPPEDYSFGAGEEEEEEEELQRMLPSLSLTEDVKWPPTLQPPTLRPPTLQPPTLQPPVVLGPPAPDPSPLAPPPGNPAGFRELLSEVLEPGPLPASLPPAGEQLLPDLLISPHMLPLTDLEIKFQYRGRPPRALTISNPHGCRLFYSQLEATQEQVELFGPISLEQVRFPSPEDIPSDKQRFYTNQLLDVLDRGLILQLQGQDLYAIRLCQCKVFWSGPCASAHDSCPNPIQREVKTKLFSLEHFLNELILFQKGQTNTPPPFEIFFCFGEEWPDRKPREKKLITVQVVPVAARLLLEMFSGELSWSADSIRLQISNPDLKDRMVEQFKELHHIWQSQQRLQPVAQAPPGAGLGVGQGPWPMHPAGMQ
Procedure: Biolayer Interferometry (BLI): Protein-protein interactions were determined by BLI using an Octet Red 96™ interferometer (ForteBio, Inc, Menlo Park, CA). IRF5 was purchased (GenScript USA Inc) and labeled with biotin (cat no. 21329, Thermo Fisher Scientific, Rockford, IL) at a ratio of 1∶1, which is optimal for binding and packaging target proteins onto SA biosensors (MR18-0009, ForteBio) for studying protein-protein interactions. Biotin-labeled IRF5 (B-IRF5) was loaded onto SA-biosensors in PBS for 15 minutes to ensure saturation. The B-IRF5-loaded SA biosensors were incubated in PBS containing 4F (20 µg/ml) for 10 minutes and association measured by following increases in wavelength interference. Next the loaded biosensors were incubated in PBS alone for 10 minutes to measure dissociation of 4F from B-IRF5 by following decreases in wavelength interference.

IRF5 [2] = test: IRF5 positive nuclei, immunofluorescence of heart sections; assay type: in vivo, mouse; settings: 4F 1 mg/kg/d, sc; Tsk−/+ heart sections, confocal; ratio IRF5 labeled nuclei to total nuclei; p<0.05, n = 3
Excerpt: as §1
Hearts were harvested from mice, flash frozen and imbedded in OCT and cut into 10 µm sections. Frozen sections were fixed for 10 minutes in PBS containing 1% paraformaldehyde. Cell membranes were permeabilized by incubation in PBS containing 0.5% Triton-X for 5 min at room temperature. The sections were washed once in PBS (5 min) and incubated in PBS containing mouse monoclonal anti-IRF5 antibody (Santa Cruz, 1∶50 concentration) for 30 min at 37°C. Unbound anti-IRF5 antibody was washed free from the sections with PBS and the slides incubated with the appropriate Alexa 488-conjugated secondary antibody (Invitrogen, Carlsbad, CA) for 30 min at 37°C. […] Sections were mounted in aqueous mounting media and analyzed by confocal microscopy, [17].

Substance: Ac-DWFKAFYDKVAEKFKEAF-NH2 [4F]
- posterior wall thickness (Tsk−/+ mice; 4F 1 mg/kg/d, sc, 6–8 weeks, 4F-treated Tsk−/+ vs untreated Tsk−/+ mice, p<0.05, n = 6, M-mode echocardiography, isoflurane): significantly increased in Tsk^−/+ compared to C57Bl/6J (control) and Tsk^−/+ mice with 4F treatment; also recorded: significantly higher in the Tsk^−/+ mice compared to C57Bl/6J and Tsk^−/+ mice treated with 4F; also recorded: significantly improved
- onset of heart failure (Tsk−/+ mice; 4F treatment of Tsk−/+ mice (Figure 1)): appear to delay the onset of heart failure in Tsk^−/+ mice
- association with B-IRF5 (IRF5 [1]; 4F 20 µg/ml in PBS, 10 minutes): rapidly associated
- association versus dissociation with IRF5 (IRF5 [1]; 4F 20 µg/ml): favoring association over dissociation; also recorded: favors association over dissociation; also recorded: rate of 4F association with IRF5 is faster than their rate of dissociation
- dissociation from B-IRF5 (IRF5 [1]; PBS alone, 10 minutes): slow
- IRF5 nuclear localization / IRF5 positive nuclei (IRF5 [2]): decreased both measurements in Tsk^−/+ hearts; also recorded: marked decreases in IRF-5 nuclear localization; also recorded: significantly more nuclear labeling in Tsk^−/+ hearts compared to C57BL/6J hearts and hearts from Tsk^−/+ mice treated with 4F; also recorded: decrease IRF5 expression, activation, nuclear translocation

— paper PMC3522636, “4F Decreases IRF5 Expression and Activation in Hearts of Tight Skin Mice” (PLoS ONE, 2012)
